Where two headings read alike, the source gives them in different places.
Legend:
[1] = target: T1, HCV NS3/4A protease complex (UniProt P27958, C1454S/C1711G, species not given); experiment: Recombinant HCV NS3/4A protease complex FRET peptide assay (strain not stated); type: biochemical
T1 construct: fused on or other part: Three-lysine solubilising tail at the C-terminus of NS4A

[2] = tested on: HCV replicon in Huh7 cells; experiment: HCV replicon cell-based assay; set-up: species or system HCV strain 1B; settings: HCV replicon, 4 days, read-out: EC50 range
Summary of the method: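 Huh7 cells carrying a genotype 1b subgenomic replicon (NS3-NS5B, neo) treated 4 days at 37° C with compound (0.5% DMSO final). NS3 protease activity read in lysates with 10 μM FRET peptide (340/490 nm, kinetic), giving EC50. Confirmed by Taqman qRT-PCR of HCV RNA and a Renilla luciferase replicon.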

[3] = HCV NS3/4A protease enzyme assay, read-out: IC50 range
[4] = read-out: IC50 range, HCV NS3/4A protease enzyme assay

## C=CC1C[C@]1(NC(=O)[C@@H]1C[C@@H](OC(=O)Nc2cccc(C)c2C)CN1C(=O)[C@@H](NC(=O)OC(C)(C)C)C(C)(C)C)C(=O)NS(=O)(=O)C1CC1 (stereo partly drawn) [Compound 42, BocNH-P3(t-BuGly)-P2(Hyp(O—CO(NH—(2,3-Dimethyl-phenyl))))-P1(1R,2S VinylAcca)—CONHSO2Cyclopropane]
[1]; [3]
  IC50: < 100 nM
[2]; Hepatitis C virus, Huh-7, 96 h
  EC50: 1000 to 10000 nM

## C=C[C@@H]1C[C@]1(NC(=O)[C@@H]1C[C@@H](OC(=O)Nc2ccccc2C(=O)OCC)CN1C(=O)[C@@H](NC(=O)OCC)C(C)(C)C)C(=O)NS(=O)(=O)C1CC1 [Compound 111]
[1]; [3]
  IC50: < 100 nM
[2]; Hepatitis C virus, Huh-7, 96 h
  EC50: 100 to 1000 nM

## C=CC1C[C@]1(NC(=O)[C@@H]1C[C@@H](OC(=O)Nc2cc(C)ccc2-n2cccn2)CN1C(=O)[C@@H](NC(=O)OC(C)(C)C)C(C)(C)C)C(=O)NS(=O)(=O)C1CC1 (stereo partly drawn) [Compound 96, BocNH-P3(t-BuGly)-P2(Hyp(O—CO(NH—(5-Methyl-2-pyrazol-1-yl-phenyl))))-P1(1R,2S VinylAcca)—CONHSO2Cyclopropane]
[1]; [3]
  IC50: < 100 nM
[2]; Hepatitis C virus, Huh-7, 96 h
  EC50: < 100 nM

## C=CC1C[C@]1(NC(=O)[C@@H]1C[C@@H](OC(=O)Nc2ccc(Cl)cc2-c2cc(C)n[nH]2)CN1C(=O)[C@@H](NC(=O)OC(C)(C)C)C(C)(C)C)C(=O)NS(=O)(=O)C1CC1 (stereo partly drawn) [Compound 78, BocNH-P3(t-BuGly)-P2(Hyp(O—CO(NH-1-(4-Chloro-2-(5-methyl-2H-pyrazol-3-yl)phenyl))))-P1(1R,2S VinylAcca)—CONHSO2Cyclopropane]
[1]; [3]
  IC50: 100 to 1000 nM
[2]; Hepatitis C virus, Huh-7, 96 h
  EC50: > 10000 nM

## C=CC1C[C@]1(NC(=O)[C@@H]1C[C@@H](OC(=O)Nc2ccccc2OCC)CN1C(=O)[C@@H](NC(=O)OC(C)(C)C)C(C)(C)C)C(=O)NS(=O)(=O)C1CC1 (stereo partly drawn) [Compound 56, BocNH-P3(t-BuGly)-P2(Hyp(O—CO(NH—(2-ethoxy-phenyl))))-P1(1R,2S VinylAcca)—CONHSO2Cyclopropane]
[1]; [3]
  IC50: < 100 nM
[2]; Hepatitis C virus, Huh-7, 96 h
  EC50: 100 to 1000 nM

## C=CC1C[C@]1(NC(=O)[C@@H]1C[C@@H](OC(=O)Nc2cc(C)nn2-c2ccccc2)CN1C(=O)[C@@H](NC(=O)OC(C)(C)C)C(C)(C)C)C(=O)NS(=O)(=O)C1CC1 (stereo partly drawn) [Compound 73, BocNH-P3(t-BuGly)-P2(Hyp(O—CO(NH—(5-Methyl-2-phenyl-4H-pyrazol-3-yl))))-P1(1R,2S VinylAcca)—CONHSO2 Cyclopropane]
[1]; [3]
  IC50: < 100 nM
[2]; Hepatitis C virus, Huh-7, 96 h
  EC50: > 10000 nM

## C=CC1C[C@]1(NC(=O)[C@@H]1C[C@@H](OC(=O)Nc2cc(F)ccc2-n2cccn2)CN1C(=O)[C@@H](NC(=O)OC(C)(C)C)C(C)(C)C)C(=O)NS(=O)(=O)C1CC1 (stereo partly drawn) [Compound 99, BocNH-P3(t-BuGly)-P2(Hyp(O—CO(NH—(5-Fluoro-2-pyrazol-1-yl-phenyl))))-P1(1R,2S VinylAcca)—CONHSO2Cyclopropane]
[1]; [3]
  IC50: < 100 nM
[2]; Hepatitis C virus, Huh-7, 96 h
  EC50: < 100 nM

## C=CC1C[C@]1(NC(=O)[C@@H]1C[C@@H](OC(=O)Nc2ccccc2C(=O)OC(C)C)CN1C(=O)[C@@H](NC(=O)OC(C)(C)C)C(C)(C)C)C(=O)NS(=O)(=O)C1CC1 (stereo partly drawn) [Compound 48, BocNH-P3(t-BuGly)-P2(Hyp(O—CO(NH—(2-benzoic acid isopropyl ester))))-P1(1R,2S VinylAcca)—CONHSO2Cyclopropane]
[1]; [3]
  IC50: < 100 nM
[2]; Hepatitis C virus, Huh-7, 96 h
  EC50: 100 to 1000 nM

## C=CC1C[C@]1(NC(=O)[C@@H]1C[C@@H](OC(=O)Nc2cc(C)ccc2F)CN1C(=O)[C@@H](NC(=O)OC(C)(C)C)C(C)(C)C)C(=O)NS(=O)(=O)C1CC1 (stereo partly drawn) [Compound 21, BocNH-P3(t-BuGly)-P2(Hyp(O—CO(NH—(2-fluoro-5-methyl-phenyl))))-P1(1R,2S VinylAcca)—CONHSO2Cyclopropane]
[1]; [3]
  IC50: < 100 nM
[2]; Hepatitis C virus, Huh-7, 96 h
  EC50: 100 to 1000 nM

## C=CC1C[C@]1(NC(=O)[C@@H]1C[C@@H](OC(=O)Nc2onc(C)c2C)CN1C(=O)[C@@H](NC(=O)OC(C)(C)C)C(C)(C)C)C(=O)NS(=O)(=O)C1CC1 (stereo partly drawn) [Compound 70, BocNH-P3(t-BuGly)-P2(Hyp(O—CO(NH—(3,4-Dimethyl-isoxazol-5-yl))))-P1(1R,2S VinylAcca)—CONHSO2Cyclopropane]
[1]; [3]
  IC50: 100 to 1000 nM
[2]; Hepatitis C virus, Huh-7, 96 h
  EC50: > 10000 nM

## C=CC1C[C@]1(NC(=O)[C@@H]1C[C@@H](OC(=O)Nc2ccccc2/C(=N/O)c2ccccc2)CN1C(=O)[C@@H](NC(=O)OC(C)(C)C)C(C)(C)C)C(=O)NS(=O)(=O)C1CC1 (single isomer, unassigned) [Compound 77b]
[1]; [3]
  IC50: 100 to 1000 nM
[2]
  EC50: > 10000 nM

## C=CC1C[C@]1(NC(=O)[C@@H]1C[C@@H](OC(=O)Nc2ccccc2SC)CN1C(=O)[C@@H](NC(=O)OC(C)(C)C)C(C)(C)C)C(=O)NS(=O)(=O)C1CC1 (stereo partly drawn) [Compound 29, BocNH-P3(t-BuGly)-P2(Hyp(O—CO(NH—(2-methylsulfanyl-phenyl))))-P1(1R,2S VinylAcca)—CONHSO2Cyclopropane]
[1]; [3]
  IC50: < 100 nM
[2]; Hepatitis C virus, Huh-7, 96 h
  EC50: 100 to 1000 nM

## C=CC1C[C@]1(NC(=O)[C@@H]1C[C@@H](OC(=O)Nc2cc(Cl)cc(Cl)c2)CN1C(=O)[C@@H](NC(=O)OC(C)(C)C)C(C)(C)C)C(=O)NS(=O)(=O)C1CC1 (stereo partly drawn) [Compound 23, BocNH-P3(t-BuGly)-P2(Hyp(O—CO(NH—(3,5-dichloro-phenyl))))-P1(1R,2S VinylAcca)—CONHSO2Cyclopropane]
[1]; [4]
  IC50: < 100 nM
[2]; Hepatitis C virus, Huh-7, 96 h
  EC50: 100 to 1000 nM

## C=CC1C[C@]1(NC(=O)[C@@H]1C[C@@H](OC(=O)Nc2ccc(F)c(F)c2F)CN1C(=O)[C@@H](NC(=O)OC(C)(C)C)C(C)(C)C)C(=O)NS(=O)(=O)C1CC1 (stereo partly drawn) [Compound 16, BocNH-P3(t-BuGly)-P2(Hyp(O—CO(NH—(2,3,4-trifluoro-phenyl))))-P1(1R,2S VinylAcca)—CONHSO2Cyclopropane]
[1]; [3]
  IC50: 100 to 1000 nM
[2]; Hepatitis C virus, Huh-7, 96 h
  EC50: 1000 to 10000 nM

## C=CC1C[C@]1(NC(=O)[C@@H]1C[C@@H](OC(=O)N[C@@H]2C[C@H]2c2ccccc2)CN1C(=O)[C@@H](NC(=O)OC(C)(C)C)C(C)(C)C)C(=O)NS(=O)(=O)C1CC1 (stereo partly drawn) [Compound 3, BocNH-P3(t-BuGly)-P(Hyp(O—CO(NH-2(trans)-phenylcyclopropyl)))-P1(1R,2S VinylAcca)—CONHSO2Cyclopropane]
[1]; [3]
  IC50: < 100 nM
[2]; Hepatitis C virus, Huh-7, 96 h
  EC50: 1000 to 10000 nM

## C=CC1C[C@]1(NC(=O)[C@@H]1C[C@@H](OC(=O)N(c2ccccc2)c2ccccc2)CN1C(=O)[C@@H](NC(=O)OC(C)(C)C)C(C)(C)C)C(=O)NS(=O)(=O)C1CC1 (stereo partly drawn) [Compound 39, BocNH-P3(t-BuGly)-P2(Hyp(O—CO(N,N-diphenyl)))-P1(1R,2S VinylAcca)—CONHSO2Cyclopropane]
[1]; [4]
  IC50: < 100 nM
[2]; Hepatitis C virus, Huh-7, 96 h
  EC50: 100 to 1000 nM

## C=CC1C[C@]1(NC(=O)[C@@H]1C[C@@H](OC(=O)Nc2cc(C(F)(F)F)ccc2N2CCC(C(F)(F)F)CC2)CN1C(=O)[C@@H](NC(=O)OC(C)(C)C)C(C)(C)C)C(=O)NS(=O)(=O)C1CC1 (stereo partly drawn) [Compound 92, BocNH-P3(t-BuGly)-P2(Hyp(O—CO(NH—(5-Trifluoromethyl-2-(4-trifluoromethyl-piperidin-1-yl)-phenyl))))-P1(1R,2S VinylAcca)—CONHSO2Cyclopropane]
[1]; [3]
  IC50: < 100 nM
[2]; Hepatitis C virus, Huh-7, 96 h
  EC50: < 100 nM

## C=CC1C[C@]1(NC(=O)[C@@H]1C[C@@H](OC(=O)Nc2ccccc2Br)CN1C(=O)[C@@H](NC(=O)OC(C)(C)C)C(C)(C)C)C(=O)NS(=O)(=O)C1CC1 (stereo partly drawn) [Compound 33, BocNH-P3(t-BuGly)-P2(Hyp(O—CO(NH—(2-bromo-phenyl))))-P1(1R,2S VinylAcca)—CONHSO2Cyclopropane]
[1]; [3]
  IC50: 100 to 1000 nM
[2]; Hepatitis C virus, Huh-7, 96 h
  EC50: 100 to 1000 nM

## C=C[C@@H]1C[C@]1(NC(=O)[C@@H]1C[C@@H](OC(=O)Nc2ccccc2C(=O)OCC)CN1C(=O)[C@@H](NC(=O)OC)C(C)(C)C)C(=O)NS(=O)(=O)C1CC1 [Compound 110]
[1]; [3]
  IC50: < 100 nM
[2]; Hepatitis C virus, Huh-7, 96 h
  EC50: 100 to 1000 nM

## C=CC1C[C@]1(NC(=O)[C@@H]1C[C@@H](OC(=O)N2CCOCC2)CN1C(=O)[C@@H](NC(=O)OC(C)(C)C)C(C)(C)C)C(=O)NS(=O)(=O)C1CC1 (stereo partly drawn) [Compound 4, BocNH-P3(t-BuGly)-P2(Hyp(O—CO—(4-morpholino)))-P1(1R,2S VinylAcca)—CONHSO2Cyclopropane]
[1]; [3]
  IC50: 100 to 1000 nM
[2]; Hepatitis C virus, Huh-7, 96 h
  EC50: > 10000 nM

## C=CC1C[C@]1(NC(=O)[C@@H]1C[C@@H](OC(=O)NCc2ccccc2C)CN1C(=O)[C@@H](NC(=O)OC(C)(C)C)C(C)(C)C)C(=O)NS(=O)(=O)C1CC1 (stereo partly drawn) [Compound 2, BocNH-P3(t-BuGly)-P2(Hyp(O—CO(NH—(2-methylbenzyl))))-P1(1R,2S VinylAcca)—CONHSO2Cyclopropane]
[1]; [3]
  IC50: 100 to 1000 nM
[2]; Hepatitis C virus, Huh-7, 96 h
  EC50: 1000 to 10000 nM

## C=CC1C[C@]1(NC(=O)[C@@H]1C[C@@H](OC(=O)N2CCCCC2)CN1C(=O)[C@@H](NC(=O)OC(C)(C)C)C(C)(C)C)C(=O)NS(=O)(=O)C1CC1 (stereo partly drawn) [Compound 14, BocNH-P3(t-BuGly)-P2(Hyp(O—CO(N,N-(piperdino))))-P1(1R,2S VinylAcca)—CONHSO2Cyclopropane]
[1]; [3]
  IC50: 100 to 1000 nM
[2]; Hepatitis C virus, Huh-7, 96 h
  EC50: 1000 to 10000 nM

## C=CC1C[C@]1(NC(=O)[C@@H]1C[C@@H](OC(=O)Nc2cc(C)cc(C)c2)CN1C(=O)[C@@H](NC(=O)OC(C)(C)C)C(C)(C)C)C(=O)NS(=O)(=O)C1CC1 (stereo partly drawn) [Compound 50, BocNH-P3(t-BuGly)-P2(Hyp(O—CO(NH—(3,5-dimethyl-phenyl))))-P1(1R,2S VinylAcca)—CONHSO2Cyclopropane]
[1]; [3]
  IC50: < 100 nM
[2]; Hepatitis C virus, Huh-7, 96 h
  EC50: 1000 to 10000 nM

## C=CC1C[C@]1(NC(=O)[C@@H]1C[C@@H](OC(=O)N2CCCC2)CN1C(=O)[C@@H](NC(=O)OC(C)(C)C)C(C)(C)C)C(=O)NS(=O)(=O)C1CC1 (stereo partly drawn) [Compound 13, BocNH-P3(t-BuGly)-P2(Hyp(O—CO(N,N-(pyrrolidino))))-P1(1R,2S VinylAcca)—CONHSO2Cyclopropane]
[1]; [3]
  IC50: 100 to 1000 nM
[2]; Hepatitis C virus, Huh-7, 96 h
  EC50: > 10000 nM

## C=CC1C[C@]1(NC(=O)[C@@H]1C[C@@H](OC(=O)Nc2ccccc2OC)CN1C(=O)[C@@H](NC(=O)OC(C)(C)C)C(C)(C)C)C(=O)NS(=O)(=O)C1CC1 (stereo partly drawn) [Compound 55, BocNH-P3(t-BuGly)-P2(Hyp(O—CO(NH—(2-methoxy-phenyl))))-P1(1R,2S VinylAcca)—CONHSO2Cyclopropane]
[1]; [3]
  IC50: < 100 nM
[2]; Hepatitis C virus, Huh-7, 96 h
  EC50: 100 to 1000 nM

— patent US7041698B2, “Hepatitis C virus inhibitors” (Bristol-Myers Squibb Company, priority 2002, dated 2006)
